In brackets after ≈: the same amount, converted by molar mass. Activity calls are given as the source filed them. The rule behind the calls is not given here.
Assays:
[1] = Acute toxicity in ICR mouse assessed as change in ALP level at 100 mg/kg, ip measured after 6 days; type: organism-based; conditions: in vivo, 144 h, time 6 day
HepG2 [2] = assay: Induction of apoptosis in human HepG2 cells assessed as early apoptotic cells at 0.2 uM measured after 48 hrs by Annexin V-FITC/propidium iodide staining based flow cytometry (reference value: 1.81%); type: functional
HepG2 [3] = assay: Antiproliferative activity against human HepG2 cells measured after 72 hrs by MTT assay; type: functional, cell-based; conditions: HepG2, 72 h
HepG2 [4] = assay: Antitumor activity against human HepG2 cells xenografted in BALB/c nude mouse assessed as reduction in Ki-67 expression at 5 to 10 mg/kg, ip administered once daily for 16 days measured post-last dose by immunohistochemical analysis; type: functional, organism-based; conditions: dose 5-10 mg/kg, time 16.0 day
[5] = Acute toxicity in ICR mouse assessed as pathological change in heart at 100 mg/kg, ip measured after 6 days; type: organism-based; conditions: in vivo, 144 h, time 6 day
[6] = Acute toxicity in ICR mouse assessed as change in creatinine level at 100 mg/kg, ip measured after 6 days; type: organism-based; conditions: in vivo, 144 h, time 6 day
Bel-7402 [7] = assay: Cell cycle arrest in human Bel-7402 cells assessed as accumulation at G2/M phase at 2 uM measured after 24 hrs by propidium iodide staining based flow cytometry (reference value: 30.29%); type: functional
[8] = MRT (0 to t) in ICR mouse at 10 mg/kg, iv; type: ADME, organism-based; conditions: in vivo
[9] = Acute toxicity in ICR mouse assessed as change in ALT level at 100 mg/kg, ip measured after 6 days; type: organism-based; conditions: in vivo, 144 h, time 6 day
HepG2 [10] = assay: Induction of apoptosis in human HepG2 cells assessed as chromatin shrinkage at 0.2 to 0.8 uM measured after 48 hrs by Hoechst 33342 staining based fluorescence microscopy; type: functional, cell-based; conditions: dose 0.2-0.8 µM
HepG2 [11] = assay: Antitumor activity against human HepG2 cells xenografted in BALB/c nude mouse assessed as increase in cleaved caspase-3 expression at 5 to 10 mg/kg, ip administered once daily for 16 days measured post-last dose by immunohistochemical analysis; type: functional, organism-based; conditions: dose 5-10 mg/kg, time 16.0 day
[12] = Acute toxicity in ICR mouse assessed as pathological change in lung at 100 mg/kg, ip measured after 6 days; type: organism-based; conditions: in vivo, 144 h, time 6 day
[13] = AUC (0 to t) in ICR mouse at 10 mg/kg, iv; type: ADME, organism-based; parameters: dose 10 mg/kg, route iv; conditions: in vivo
[14] = biological target: ADP-ribosylation factor 1 (Homo sapiens) (UniProt P84077); assay: Binding affinity to Arf1 in human HepG2 cell lysate assessed as change in denaturation temperature at 25 uM measured after 3 mins by CETSA; type: subcellular
ADP-ribosylation factor 1 (Homo sapiens), sequence (P84077 whole entry): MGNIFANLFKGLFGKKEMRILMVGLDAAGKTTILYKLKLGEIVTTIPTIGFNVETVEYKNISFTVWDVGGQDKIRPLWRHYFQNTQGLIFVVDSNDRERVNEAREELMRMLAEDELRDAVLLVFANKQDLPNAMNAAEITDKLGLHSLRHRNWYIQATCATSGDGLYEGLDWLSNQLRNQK

HepG2 [15] = assay: Induction of apoptosis in human HepG2 cells assessed as necrotic cells at 0.2 uM measured after 48 hrs by Annexin V-FITC/propidium iodide staining based flow cytometry (reference value: 2.04%); type: functional
Bel-7402 [16] = assay: Cell cycle arrest in human Bel-7402 cells assessed as accumulation at S phase at 1 uM measured after 24 hrs by propidium iodide staining based flow cytometry (reference value: 31%); type: functional
Bel-7402 [17] = assay: Antiproliferative activity against human Bel-7402 cells measured after 72 hrs by MTT assay; type: functional, cell-based; conditions: Bel-7402, 72 h
HepG2 [18] = assay: Cell cycle arrest in human HepG2 cells assessed as accumulation at G2/M phase at 0.2 uM measured after 24 hrs by propidium iodide staining based flow cytometry (reference value: 19.93%); type: functional
HepG2 [19] = assay: Induction of apoptosis in human HepG2 cells assessed as viable cells at 0.4 uM measured after 48 hrs by Annexin V-FITC/propidium iodide staining based flow cytometry (reference value: 94.5%); type: functional; conditions: read-out: Activity
HepG2 [20] = assay: Induction of ROS generation in human HepG2 cells measured after 48 hrs by DCFH-DA probe based fluorescence microscopy; type: functional, cell-based; conditions: dose 0.2-0.8 µM, DDE = dose-dependent effect
HepG2 [21] = assay: Induction of apoptosis in human HepG2 cells assessed as early apoptotic cells at 0.8 uM measured after 48 hrs by Annexin V-FITC/propidium iodide staining based flow cytometry (reference value: 1.81%); type: functional
HepG2 [22] = assay: Induction of apoptosis in human HepG2 cells assessed as viable cells at 0.2 uM measured after 48 hrs by Annexin V-FITC/propidium iodide staining based flow cytometry (reference value: 94.5%); type: functional; conditions: read-out: Activity
HepG2 [23] = assay: Induction of apoptosis in human HepG2 cells assessed as late apoptotic cells at 0.4 uM measured after 48 hrs by Annexin V-FITC/propidium iodide staining based flow cytometry (reference value: 1.66%); type: functional
[24] = Toxicity in human HepG2 cells xenografted BALB/c nude mouse assessed as change in body weight at 5 to 10 mg/kg, ip administered once daily for 16 days measured 3 times per week during compound dosing; type: organism-based; conditions: in vivo, 384 h, dose 5-10 mg/kg, time 16 day
Bel-7402 [25] = assay: Cell cycle arrest in human Bel-7402 cells assessed as accumulation at G2/M phase at 1 uM measured after 24 hrs by propidium iodide staining based flow cytometry (reference value: 30.29%); type: functional
ECa-109 cell line = assay: Antiproliferative activity against human Eca-109 cells measured after 72 hrs by MTT assay; type: functional, cell-based; conditions: ECa-109, 72 h
[26] = Volume of distribution at steady state in ICR mouse at 10 mg/kg, iv; type: ADME, organism-based; conditions: in vivo, read-out: Vdss
HepG2 [27] = assay: Cell cycle arrest in human HepG2 cells assessed as accumulation at G1 phase at 0.4 uM measured after 24 hrs by propidium iodide staining based flow cytometry (reference value: 42.27%); type: functional
HepG2 [28] = assay: Induction of apoptosis in human HepG2 cells assessed as increase in cleaved PARP expression at 0.2 to 0.8 uM measured after 48 hrs by Western blot analysis; type: functional, cell-based; conditions: dose 0.2-0.8 µM
[29] = Solubility of the compound in 5% DMSO and 10% Solutol HS-15 saline solution; type: physicochemical
[30] = Acute toxicity in ICR mouse assessed as pathological change in kidney at 100 mg/kg, ip measured after 6 days; type: organism-based; conditions: in vivo, 144 h, time 6 day
[31] = Acute toxicity in ICR mouse assessed as change in AST level at 100 mg/kg, ip measured after 6 days; type: organism-based; conditions: in vivo, 144 h, time 6 day
[32] = Clearance in ICR mouse at 10 mg/kg, iv; type: ADME, organism-based; conditions: in vivo
HepG2 [33] = assay: Antitumor activity against human HepG2 cells xenografted in BALB/c nude mouse assessed as tumor growth inhibition at 10 mg/kg, ip administered once daily for 16 days relative to control; type: functional; conditions: HepG2, 384 h, time 16 day, read-out: TGI
Bel-7402 [34] = assay: Cell cycle arrest in human Bel-7402 cells assessed as accumulation at S phase at 2 uM measured after 24 hrs by propidium iodide staining based flow cytometry (reference value: 31%); type: functional
[35] = Cmax in ICR mouse at 10 mg/kg, iv; type: ADME, organism-based; parameters: dose 10 mg/kg, route iv; conditions: in vivo
[36] = Acute toxicity in ICR mouse assessed as change in uric acid level at 100 mg/kg, ip measured after 6 days; type: organism-based; conditions: in vivo, 144 h, time 6 day
HepG2 [37] = assay: Inhibition of colony formation in human HepG2 cells at 0.4 to 0.8 uM treated every 3 days for 14 days by crystal violet staining based assay; type: functional, cell-based; conditions: dose 0.4-0.8 µM, time 14.0 day

In the case of `C[C@H]1CCC/C=C/[C@@H]2C[C@H](O)C[C@H]2[C@H](OC(=O)/C=C/c2ccc(N(C)C)cc2)/C=C/C(=O)O1`, the Activity [1] is reported as “Non-Toxic”, the Activity (HepG2 [2]) is reported as 2.03% and the IC50 (HepG2 [3]) is reported as 290 nM. For the same compound, the Activity (HepG2 [4]) was “Active”, the Activity [5] was “Non-Toxic” and the Activity [6] was “Non-Toxic”. The Activity (Bel-7402 [7]) was 18.82%, the MRT last [8] was 19.2 min and the Activity [9] was “Non-Toxic”. The Activity (HepG2 [10]) was “Active”, the Activity (HepG2 [11]) was “Active” and the Activity [12] was “Non-Toxic”. For the same compound, the AUC(0-t) [13] was 4010 ng·h/mL, the Activity [14] was “Active” and the Activity (HepG2 [15]) was 28.85%. For the same compound, the Activity (Bel-7402 [16]) was 19.59%, the IC50 (Bel-7402 [17]) was 840 nM and the Activity (HepG2 [18]) was 22.32%. For the same compound, the viability at 0.4 µM (HepG2 [19]) was 53.1%, the Activity (HepG2 [20]) was “Dde” and the Activity (HepG2 [21]) was 1.49%. For the same compound, the viability at 0.2 µM (HepG2 [22]) was 66.1%, the Activity (HepG2 [23]) was 3.9% and the Activity [24] was “Non-Toxic”. For the same compound, the Activity (Bel-7402 [25]) was 26.22%, the IC50 (ECa-109 cell line) was 1770 nM and the Vd [26] was 0.852 L/kg. For the same compound, the Activity (HepG2 [27]) was 57.76%, the Activity (HepG2 [28]) was “Active” and the solubility [29] was 2500 µg/mL (≈ 5.51 mM). For the same compound, the Activity [30] was “Non-Toxic”, the Activity [31] was “Non-Toxic” and the clearance [32] was 42.5 mL/min/kg. For the same compound, the inhibition in vivo at 10 mg/kg (HepG2 [33]) was 46.2%, the Activity (Bel-7402 [34]) was 20.69% and the Cmax [35] was 14400 ng/mL. The Activity [36] was “Non-Toxic” and the inhibition (HepG2 [37]) was “Active”.

— ChEMBL document CHEMBL5113500, “New brefeldin A-cinnamic acid ester derivatives as potential antitumor agents: Design, synthesis and biological evaluation” (Eur J Med Chem, 2022)
